Source: patent US20250188085A1, “COMPOSITIONS AND METHODS FOR INHIBITION OF RAS” (THERAS, INC., priority 2022, published 2025)
Read-outs that look alike come from different tables or passages of the source.

Tests used:
[1] = molecular target: T1, GDP-loaded KRAS4b (amino acids 1-169) G12C/C118S protein (Homo sapiens, UniProt P01116, C118S/G12C); assay: Covalent cysteine 12 modification by MALDI-TOF MS, GDP-loaded KRAS G12C; assay type: binding; details: 15 minutes reaction time point
T1 construct: KRAS4b (amino acids 1-169) G12C/C118S protein; made in house
Procedure, shortened: (§1)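 KRAS4b 1-169 G12C/C118S loaded with GDP, GppNHp or GTP was used at 1 μM in 20 mM HEPES, 150 mM NaCl, 1 mM MgCl2, pH 7.3, and incubated with compound (5 mM DMSO stock) at room temperature in the dark. % modification at 15 min is adduct peak height over total protein peak heights by linear-mode MALDI-TOF.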

[2] = molecular target: T2, GppNHp-loaded KRAS4b (amino acids 1-169) G12C/C118S protein (Homo sapiens, UniProt P01116, C118S/G12C); assay: Covalent cysteine 12 modification by MALDI-TOF MS, GppNHp-loaded KRAS G12C; assay type: binding; details: 15 minutes reaction time point
T2 construct: KRAS4b (amino acids 1-169) G12C/C118S protein; made in house
Procedure, shortened: as §1

[3] = molecular target: T3, GTP-loaded KRAS4b (amino acids 1-169) G12C/C118S protein (Homo sapiens, UniProt P01116, C118S/G12C); assay: Covalent cysteine 12 modification by MALDI-TOF MS, GTP-loaded KRAS G12C; assay type: binding; details: 15 minutes reaction time point
T3 construct: KRAS4b (amino acids 1-169) G12C/C118S protein; made in house
Procedure, shortened: as §1

[4] = test system: pERK in NCI-H358 cells; assay: Cell-based pERK HTRF assay; details: 30 min incubation, read-out: pERK in NCI-H358 cell inhibition IC50
Procedure, shortened: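 Cells seeded at 4×10^4/well in RPMI with 10% FBS, then next day treated for 30 min with a 9-point, 3-fold series from 75 μM top concentration at 0.25% DMSO. Lysates were read for pERK by HTRF (d2/Eu cryptate antibodies) after 4–24 h at room temperature, emission at 615 nm.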

[5] = molecular target: T4, Avi-KRAS G12C (1-169) GppNHp/RAF1 RBD-3×FLAG (52-151) (Homo sapiens, UniProt P01116, G12C); assay: Raf1 RBD-KRAS G12C-GppNHp disruption (protein:protein interaction HTRF assay); assay type: biochemical
T4 construct: Avi-KRAS G12C (1-169) GppNHp/RAF1 RBD-3×FLAG (52-151)
Procedure, shortened: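 HTRF measuring disruption of 50 nM Avi-KRAS G12C (1-169) loaded with GppNHp binding RAF1 RBD-3×FLAG (52-151), in pH 7.5 Tris buffer with 5 mM MgCl2, 0.1% BSA, 10% DMSO. KRAS preincubated with compound 1 h, then RBD 1 h, then detection reagents 1 h, all at room temperature. Compound titration 30-0.02 μM; activity expressed as percent of DMSO control.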

SMILES | GDP-KRAS G12C percent of modification [1] | GppNHp-KRAS G12C percent of modification [2] | GTP-KRAS G12C percent of modification [3] | IC50 [4] [nM] | IC50 [5] [nM] | IC50 ([4]; Homo sapiens, NCI-H358, 0.5 h) [nM]
C=CC(=O)N1CC[C@@H](Oc2nc(OC[C@@]34CCCN3C[C@H](F)C4)nc3c(F)c(-c4ccc(F)c5sc(N)nc45)ccc23)[C@H]1C [Compound 88] | C (10%≤modification <50%) | C (10%≤modification <50%) | C (10%≤modification <50%) |  | ≤ 500 | 100 to 1000
C=CC(=O)N1CC[C@@H](Oc2nc(OC[C@@]34CCCN3C[C@H](F)C4)nc3cc(-c4ccc(F)c5sc(N)c(C#N)c45)c(C(F)(F)F)nc23)[C@H]1C [Compound 91] | A (percent of modification ≥70%) | B (50≤percent of modification <70%) | C (10%≤modification <50%) |  | ≤ 500 | ≤ 100
C=CC(=O)N1CC[C@@H](Oc2nc(OC[C@@]34CCCN3C[C@H](F)C4)nc3c(F)c(-c4ccc(F)c5sc(N)c(C#N)c45)c(Cl)cc23)[C@H]1C [Compound 94] | A (percent of modification ≥70%) | A (percent of modification ≥70%) | B (50≤percent of modification <70%) |  | ≤ 500 | ≤ 100
C=CC(=O)N1CC[C@@H](Oc2nc(OC[C@@]34CCCN3C[C@H](F)C4)nc3c(F)c(-c4ccc(F)c5sc(N)c(C#N)c45)ccc23)[C@H]1COC [Compound 97] | A (percent of modification ≥70%) | A (percent of modification ≥70%) | A (percent of modification ≥70%) |  | ≤ 500 | ≤ 100
C=CC(=O)N1CC[C@@H](Oc2nc(OC[C@@]34CCCN3C[C@H](OC)C4)nc3c(F)c(-c4ccc(F)c5sc(N)c(C#N)c45)c(C(F)(F)F)cc23)[C@H]1C [Compound 99] | B (50≤percent of modification <70%) | B (50≤percent of modification <70%) | B (50≤percent of modification <70%) |  | ≤ 500 | ≤ 100
C=CC(=O)N1CC[C@@H](Oc2nc(OC[C@@H]3CCCN3C)nc3c(F)c(-c4ccc(F)c5sc(N)c(C#N)c45)c(C(F)(F)F)cc23)[C@H]1C [Compound 101] | A (percent of modification ≥70%) | B (50≤percent of modification <70%) | C (10%≤modification <50%) |  | ≤ 500 | ≤ 100
C=CC(=O)N1CC[C@@H](Oc2nc(OC[C@@]34CCCN3C[C@H](F)C4)nc3cc(-c4ccc(F)c5sc(N)c(C#N)c45)ccc23)[C@H]1C [Compound 103] | A (percent of modification ≥70%) | B (50≤percent of modification <70%) | C (10%≤modification <50%) |  | ≤ 500 | ≤ 100
C=CC(=O)N1CC[C@@H](Oc2nc(OC[C@@]34CCCN3C[C@H](F)C4)nc3c(C#N)c(-c4ccc(F)c5sc(N)c(C#N)c45)ccc23)[C@H]1C [Compound 104] | A (percent of modification ≥70%) | C (10%≤modification <50%) | C (10%≤modification <50%) |  | ≤ 500 | 100 to 1000
C=CC(=O)N1CC[C@@H](Oc2nc(OC[C@@]34CCCN3C[C@H](F)C4)nc3c(Cl)c(-c4ccc(F)c5sc(N)c(C#N)c45)c(C#N)cc23)[C@H]1C [Compound 105] | B (50≤percent of modification <70%) | A (percent of modification ≥70%) | B (50≤percent of modification <70%) |  | ≤ 500 | ≤ 100
C=CC(=O)N1CC[C@@H](Oc2nc(OC[C@@]34CCCN3C[C@H](F)C4)nc3c(Cl)c(-c4ccc(F)c5sc(N)c(C#N)c45)ncc23)[C@H]1C [Compound 106, 4-(4-(((2R,3R)-1-acryloyl-2-methylpyrrolidin-3-yl)oxy)-8-chloro-2-(((2R,7aS)-2-fluorotetrahydro-1H-pyrrolizin-7a (5H)-yl)methoxy)pyrido[4,3-d]pyrimidin-7-yl)-2-amino-7-fluorobenzo[b]thiophene-3-carbonitrile] | A (percent of modification ≥70%) | A (percent of modification ≥70%) | A (percent of modification ≥70%) |  | ≤ 500 | ≤ 100

The next lines start with the values.

GDP-KRAS G12C percent of modification [1] | GppNHp-KRAS G12C percent of modification [2] | GTP-KRAS G12C percent of modification [3] | IC50 [4] [nM] | IC50 [5] [nM] | IC50 ([4]; Homo sapiens, NCI-H358, 0.5 h) [nM] | SMILES
C (10%≤modification <50%) | C (10%≤modification <50%) | C (10%≤modification <50%) | ≤ 100 | ≤ 500 |  | C=CC(=O)N1C[C@H](Oc2nc(OC[C@@]34CCCN3C[C@H](F)C4)nc3cc(-c4ccc(F)c5sc(N)c(C#N)c45)c(C(F)(F)F)nc23)C[C@H]1C [Compound 84]
A (percent of modification ≥70%) | C (10%≤modification <50%) | D (percent of modification <10%) |  | 500 to 5000 | 100 to 1000 | C=CC(=O)N1CC[C@@H](Oc2nc(N3CC(N4CC5(CC5)C4)C3)nc3c(F)c(-c4ccc(F)c5sc(N)c(C#N)c45)ncc23)C1 [Compound 87]
A (percent of modification ≥70%) | A (percent of modification ≥70%) | B (50≤percent of modification <70%) |  | ≤ 500 | ≤ 100 | C=CC(=O)N1C[C@@H](F)[C@@H](Oc2nc(OC[C@@]34CCCN3C[C@H](F)C4)nc3c(F)c(-c4ccc(F)c5sc(N)c(C#N)c45)c(Cl)cc23)C1 [Compound 93]
B (50≤percent of modification <70%) | B (50≤percent of modification <70%) | C (10%≤modification <50%) |  | ≤ 500 | 100 to 1000 | C=CC(=O)N1CC[C@@H](Oc2nc(OC[C@@]34CCCN3C[C@H](F)C4)nc3cc(-c4ccc(F)c5sc(N)c(C#N)c45)c(C(F)(F)F)cc23)[C@H]1C [Compound 98]
B (50≤percent of modification <70%) | C (10%≤modification <50%) | C (10%≤modification <50%) |  | ≤ 500 | 100 to 1000 | C=CC(=O)N1CC[C@@H](Oc2nc(OCC34CCCN3CCC4)nc3c(F)c(-c4ccc(F)c5sc(N)c(C#N)c45)c(C(F)(F)F)cc23)[C@H]1C [Compound 100]
A (percent of modification ≥70%) | A (percent of modification ≥70%) | A (percent of modification ≥70%) |  | ≤ 500 | ≤ 100 | C=CC(=O)N1CC[C@@H](Oc2nc(OC[C@@]34CCCN3C[C@H](OC)C4)nc3cc(-c4ccc(F)c5sc(N)c(C#N)c45)c(C(F)(F)F)cc23)[C@H]1C [Compound 102]
A (percent of modification ≥70%) | A (percent of modification ≥70%) | C (10%≤modification <50%) |  | ≤ 500 | ≤ 100 | C=CC(=O)N1CC[C@@H](Oc2nc(OC[C@@]34CCCN3C[C@H](F)C4)nc3cc(-c4ccc(F)c5sc(N)c(C#N)c45)c(C#N)cc23)[C@H]1C [Compound 107]
